According to PMC6108829 (Environmental Health Perspectives, 2018):
Where “and” joins values, the source holds several entries; their conditions need not be identical. Equal values may be shown once. Read-outs that look alike come from different tables or passages of the source. Marks after values point to notes of the source that are not given here.

Tests used:
[1] = ref Schönfelder et al. (2002); cited from earlier work
[2] = cited from earlier work
[3] = ref Csanády et al. 2002; cited from earlier work
[4] = in vivo; cited from earlier work
liver [5] = details: ref Kurebayashi et al. (2010), cited from earlier work
[6] = determined experimentally, ref Doerge et al. (2011), cited from earlier work
[7] = Margin of exposure (MOE = EC50/Cmax) back-of-the-envelope calculation; parameters: species or system human
[8] = cited from earlier work; remark: listed apart in the source
liver [9] = details: cited from earlier work
[10] = system: human breast-cancer cell lines; parameters: method as in Walsh et al. (2005); details: ref Walsh et al. (2005), read-out: EC50 for an increase of calcium ion concentration; cited from earlier work
[11] = cited from earlier work; remark: listed apart in the source
[12] = PBPK model parametrization and calibration with biomonitoring data; parameters: species or system human; details: basic BPA model
Experimental: It consists of the compartments titled serum, liver, fat, skin, gonads, brain, “richly perfused tissue,” “slowly perfused tissue”, and two single-compartment submodules for BPA-g and BPA-s in serum (see Figure 2). In the compartment titled “richly perfused tissue,” compartments were lumped with a perfusion greater than 0.1mL/min/g tissue (heart, kidneys, small and large intestine, pancreas, spleen, and stomach), and in the compartment titled “slowly perfused tissue,” compartments were lumped with a perfusion smaller than 0.1mL/min/g tissue (muscle and skeleton) ([Edginton et al. 2006]; [ICRP 2002], see Table S1 for the aggregated parameters). […] Fixing the scaling error caused the aforementioned discrepancy, and we had to review and readjust the model parameters to the biomonitoring data.
In a first step to readjust and further develop the PBPK model, we collected all studies that investigated the metabolism parameters used in the model and gathered data from different studies that measured the same metabolism routes (see Table S2). […] For this purpose, we calculated the mean relative deviation (MRD) and average fold error (AFE) to assess precision and bias of the model predictions using Equations 1 and 2 ([Sheiner and Beal 1981]), as done previously ([Ito and Houston 2005]; [Vogt 2014]; [Yang et al. 2015]). […]

small intestine = details: cited from earlier work
[13] = basic PBPK model, ref Yang et al. (2015)
[14] = EC50 (Kitamura et al. 2005)/highest Cmax of basic PBPK model (Table 9)

## CC(C)(c1ccc(O)cc1)c1ccc(O)cc1 [BPA, bisphenol A]
[1]
  fetal plasma concentration, times higher than corresponding maternal plasma: up to 7 times
[2]; basic PBPK model, ref Kortejärvi et al. (2007)
  Oral uptake from small intestine to liver: 2.10^a 1/h/kg BW^−0.25
[2]; [13]
  EHR as glucuronide: 0.20^f 1/h/kg BW^−0.25
  EHR unconjugated: 0.20^f 1/h/kg BW^−0.25
  Fraction of glucuronide in liver taken up directly into serum (no EHR): 0.9^f
  Urinary excretion glucuronide: 0.35^f 1/h/kg BW^0.75
[2]; unconjugated, basic PBPK model, ref Yang et al. (2015)
  Urinary excretion: 0.060^f 1/h/kg BW^0.75
[2]; used in BPA PBPK model, ref Yang et al. (2015)
  EHR share: 10%
[3]
  fu (unbound fraction): 0.06
[4]
  AUC, mean (range), measured: 15.5 (0.986–23.2) nM*h for 1.5 h
  Cmax: 0.0165 µM
Liver [5]; read-out: Hepatic sulfation Km
  Km: 10.1 µM
Liver [5]
  Hepatic sulfation vmax: 149^n nmol/h/g liver
[6]; value for brain used
  PTS richly perfused tissue/serum: 2.8
[6]; value for muscle used
  PTS slowly perfused tissue/serum: 2.7
[7]; [14]
  MOE in gonads: 4,670
  MOE in serum: 12,000
[7]; EC50 of Walsh et al. (2005), Cmax P95/P95
  MOE in serum of females: 1.25
[7]; EC50 of Walsh et al. (2005), worst-case accumulation in the fetus
  MOE in fetal serum: 0.179
[8]; dissolved in ethanol, used for PCPs, ref Biedermann et al. 2010
  dermal absorption fraction: 60%
[8]; range over several studies, different study designs and solvents
  reported dermal absorption: 9.3% to 60
Liver [9]; arithmetic mean of female and male kinetics, ref Elsby et al. (2001)
  Hepatic glucuronidation vmax ±SD: 333 ± 21 nmol/h/mg microsomal protein
Liver [9]; arithmetic mean of female and male kinetics, ref Kuester and Sipes (2007)
  Hepatic glucuronidation vmax ±SD: 85.2 ± 31.4 nmol/h/mg microsomal protein
Liver [9]; arithmetic mean of female and male kinetics, ref Mazur et al. (2010)
  Hepatic glucuronidation vmax ±SD: 190 ± 16.9 nmol/h/mg microsomal protein
Liver [9]; range of published values, ref Coughlin et al. (2012), Kurebayashi et al. (2010), Trdan Lušin et al. (2012), Elsby et al. (2001), Kuester and Sipes (2007), Mazur et al. (2010), Street et al. (2017)
  Hepatic glucuronidation vmax range: 1,270–16,300^c nmol/h/g liver
Liver [9]; read-out: Hepatic glucuronidation Km ±SD, arithmetic mean of female and male kinetics, ref Elsby et al. (2001)
  Km: 71.9 µM
Liver [9]; read-out: Hepatic glucuronidation Km ±SD, arithmetic mean of female and male kinetics, ref Kuester and Sipes (2007)
  Km: 8.5 µM
Liver [9]; read-out: Hepatic glucuronidation Km ±SD, arithmetic mean of female and male kinetics, ref Mazur et al. (2010)
  Km: 4.25 µM
Liver [9]; read-out: Hepatic glucuronidation Km ±SD, ref Street et al. (2017)
  Km: 23 µM
Liver [9]; read-out: Hepatic glucuronidation Km ±SD, ref Trdan Lušin et al. (2012)
  Km: 8.9 µM
Liver [9]; read-out: Hepatic glucuronidation Km, n=1, ref Kurebayashi et al. (2010)
  Km: 5.3 µM
Liver [9]; read-out: Hepatic glucuronidation Km, used in basic model, ref Coughlin et al. (2012)
  Km: 45.8 µM
Liver [9]; ref Coughlin et al. (2012)
  Hepatic glucuronidation vmax - used in basic model: 9,040^a nmol/h/g liver
  Hepatic glucuronidation vmax ±SD: 283 ± 18 nmol/h/mg microsomal protein
Liver [9]; ref Kurebayashi et al. (2010)
  Hepatic glucuronidation vmax: 39.8 nmol/h/mg microsomal protein
Liver [9]; ref Street et al. (2017)
  Hepatic glucuronidation vmax ±SD: 270 ± 60 nmol/h/mg microsomal protein
Liver [9]; ref Trdan Lušin et al. (2012)
  Hepatic glucuronidation vmax ±SD: 510 ± 18 nmol/h/mg microsomal protein
[10]
  EC50: 0.1 nM
[11]; mean, ref Bayer 1996, Korenman 1973
  logPow: 3.36
[11]; ref Bautista-Toledo et al. 2005
  pKa: 10.4 and ~10.4
[12]
  vmax of hepatic sulfation, times lower than that of hepatic glucuronidation: about 60 times
Small intestine; read-out: Glucuronidation in enterocytes / intestinal glucuronidation Km, used in basic model, ref Trdan Lušin et al. (2012)
  Km: 58.4 µM
Small intestine; read-out: Glucuronidation in enterocytes Km range, ref Trdan Lušin et al. (2012), Mazur et al. (2010)
  Km: 58.4 to 80.1 µM
Small intestine; read-out: Intestinal glucuronidation Km ±SD, ref Mazur et al. (2010)
  Km: 80.1 µM
Small intestine; ref Mazur et al. (2010)
  Intestinal glucuronidation vmax ±SD: 29.2 ± 7.2 nmol/h/mg microsomal protein
Small intestine; ref Trdan Lušin et al. (2012), Mazur et al. (2010)
  Glucuronidation in enterocytes vmax range: 125–361^j nmol/h/g liver
Small intestine; ref Trdan Lušin et al. (2012)
  Glucuronidation in enterocytes vmax - used in basic model: 361^i nmol/h/g bw
  Intestinal glucuronidation vmax ±SD: 84.0 ± 6.0 nmol/h/mg microsomal protein
